According to patent US20240158446A1, “CYCLIC COMPOUND HAVING SELECTIVE INHIBITORY ACTION ON KRAS OVER HRAS AND NRAS” (CHUGAI SEIYAKU KABUSHIKI KAISHA, priority 2021, published 2024):

What was measured:
[1] = target: GDP-bound HRAS wild-type protein (Homo sapiens, UniProt P01112); assay: Binding to HRAS by surface plasmon resonance (SPR), Single Cycle Kinetics; conditions: SPR, GDP-bound HRAS wild-type protein vs GDP-bound KRAS wild-type protein
[2] = target: GDP-bound NRAS wild-type protein (Homo sapiens, UniProt P01111); assay: Binding to NRAS by surface plasmon resonance (SPR), Single Cycle Kinetics; conditions: SPR, GDP-bound NRAS wild-type protein vs GDP-bound KRAS wild-type protein
[3] = target: GDP-bound KRAS wild-type protein (Homo sapiens, UniProt P01116); assay: Binding to KRAS by surface plasmon resonance (SPR), Single Cycle Kinetics; conditions: SPR Single Cycle Kinetics, GDP-bound KRAS wild-type protein, 1:1 binding model; read-out: KRAS KD
Sequence of GDP-bound KRAS wild-type protein (P01116 whole entry): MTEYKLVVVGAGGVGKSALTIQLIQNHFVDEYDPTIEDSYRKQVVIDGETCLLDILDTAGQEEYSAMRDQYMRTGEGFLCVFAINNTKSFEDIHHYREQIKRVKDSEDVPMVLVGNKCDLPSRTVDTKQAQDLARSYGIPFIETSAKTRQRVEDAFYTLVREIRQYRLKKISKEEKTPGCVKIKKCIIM

Sequence of GDP-bound HRAS wild-type protein (P01112 whole entry): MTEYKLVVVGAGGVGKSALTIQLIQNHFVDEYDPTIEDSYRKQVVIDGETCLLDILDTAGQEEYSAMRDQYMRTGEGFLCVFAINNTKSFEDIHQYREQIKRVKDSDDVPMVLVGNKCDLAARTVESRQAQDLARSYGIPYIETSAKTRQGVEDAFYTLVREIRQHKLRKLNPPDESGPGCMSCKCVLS
Sequence of GDP-bound NRAS wild-type protein (P01111 whole entry): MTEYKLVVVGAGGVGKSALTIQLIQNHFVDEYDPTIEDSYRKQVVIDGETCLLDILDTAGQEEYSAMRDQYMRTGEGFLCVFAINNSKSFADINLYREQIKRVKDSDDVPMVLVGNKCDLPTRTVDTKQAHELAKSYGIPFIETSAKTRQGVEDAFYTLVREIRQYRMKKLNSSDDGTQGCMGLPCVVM

Row | Kd [3] [pM] | Structure (SMILES) | HRAS/KRAS (ratio of KD value with respect to HRAS to KD value with respect to KRAS) [1] | NRAS/KRAS (ratio of KD value with respect to NRAS to KD value with respect to KRAS) [2]
1 | 36 | CCO[C@@H]1C[C@H]2C(=O)NC3(CCC3)C(=O)N(C)[C@@H](C3CCCC3)C(=O)N(C)[C@H](C(=O)N(C)C)CC(=O)N(C)[C@@H](CC(C)(C)C)C(=O)N[C@@H]([C@@H](C)CC)C(=O)N(C)CC(=O)N(C)[C@H]3CCCCN(C3=O)[C@@H](Cc3ccc(C(F)(F)F)cc3)C(=O)N(C)CC(=O)N[C@@H](CCc3cc(F)c(C(F)(F)F)c(F)c3)C(=O)N2C1 [PP0699] | C (A compound having a KD ratio of 0.1 or more and less than 3 is denoted as C) | C (A compound having a KD ratio of 0.1 or more and less than 3 is denoted as C)
2 | 17 | CCO[C@@H]1C[C@H]2C(=O)NC3(CCC3)C(=O)N(C)[C@@H](C3CCCC3)C(=O)N(C)[C@H](C(=O)N(C)C)CC(=O)N(C)[C@@H](CC3CCCCC3)C(=O)N[C@@H]([C@@H](C)CC)C(=O)N(C)CC(=O)N(C)[C@H]3CCCCN(C3=O)[C@@H](Cc3ccc(C(F)(F)F)cc3)C(=O)N(C)CC(=O)N[C@@H](CCc3cc(F)c(C(F)(F)F)c(F)c3)C(=O)N2C1 [PP0701] | B (a compound having 3 or more and less than 10 is denoted as B) | C (A compound having a KD ratio of 0.1 or more and less than 3 is denoted as C)
3 | 13 | CCO[C@@H]1C[C@H]2C(=O)NC3(CCC3)C(=O)N(C)[C@@H](C3CCCC3)C(=O)N(C)[C@H](C(=O)N(C)C)CC(=O)N(C)[C@@H](Cc3cccnc3)C(=O)N[C@@H]([C@@H](C)CC)C(=O)N(C)CC(=O)N(C)[C@H]3CCCCN(C3=O)[C@@H](Cc3ccc(C(F)(F)F)cc3)C(=O)N(C)CC(=O)N[C@@H](CCc3cc(F)c(C(F)(F)F)c(F)c3)C(=O)N2C1 [PP0703] | B (a compound having 3 or more and less than 10 is denoted as B) | C (A compound having a KD ratio of 0.1 or more and less than 3 is denoted as C)
4 | 11 | CCO[C@@H]1C[C@H]2C(=O)NC3(CCC3)C(=O)N(C)[C@@H](C3CCCC3)C(=O)N(C)[C@H](C(=O)N(C)C)CC(=O)N(C)[C@@H](COC)C(=O)N[C@@H]([C@@H](C)CC)C(=O)N(C)CC(=O)N(C)[C@H]3CCCCN(C3=O)[C@@H](Cc3ccc(C(F)(F)F)cc3)C(=O)N(C)CC(=O)N[C@@H](CCc3cc(F)c(C(F)(F)F)c(F)c3)C(=O)N2C1 [PP0704] | C (A compound having a KD ratio of 0.1 or more and less than 3 is denoted as C) | C (A compound having a KD ratio of 0.1 or more and less than 3 is denoted as C)
5 | 27 | CCO[C@@H]1C[C@H]2C(=O)NC3(CCC3)C(=O)N(C)[C@@H](C3CCCC3)C(=O)N(C)[C@H](C(=O)N(C)C)CC(=O)N(C)[C@@H](CCOC)C(=O)N[C@@H]([C@@H](C)CC)C(=O)N(C)CC(=O)N(C)[C@H]3CCCCN(C3=O)[C@@H](Cc3ccc(C(F)(F)F)cc3)C(=O)N(C)CC(=O)N[C@@H](CCc3cc(F)c(C(F)(F)F)c(F)c3)C(=O)N2C1 [PP0705] | C (A compound having a KD ratio of 0.1 or more and less than 3 is denoted as C) | C (A compound having a KD ratio of 0.1 or more and less than 3 is denoted as C)
6 | 3600 | CCO[C@@H]1C[C@H]2C(=O)NC3(CCC3)C(=O)N(C)[C@@H](C3CCCC3)C(=O)N(C)[C@H](C(=O)N(C)C)CC(=O)N(C)C[C@@H](C)C(=O)N[C@@H]([C@@H](C)CC)C(=O)N(C)CC(=O)N(C)[C@H]3CCCCN(C3=O)[C@@H](Cc3ccc(C(F)(F)F)cc3)C(=O)N(C)CC(=O)N[C@@H](CCc3cc(F)c(C(F)(F)F)c(F)c3)C(=O)N2C1 [PP0706] | B (a compound having 3 or more and less than 10 is denoted as B) | B (a compound having 3 or more and less than 10 is denoted as B)
7 | 26 | CCO[C@@H]1C[C@H]2C(=O)NC3(CCC3)C(=O)N(C)[C@@H](C3CCCC3)C(=O)N(C)[C@H](C(=O)N3CCOCC3)CC(=O)N(C)[C@@H](CC)C(=O)N[C@@H]([C@@H](C)CC)C(=O)N(C)CC(=O)N(C)[C@H]3CCCCN(C3=O)[C@@H](Cc3ccc(C(F)(F)F)cc3)C(=O)N(C)CC(=O)N[C@@H](CCc3cc(F)c(C(F)(F)F)c(F)c3)C(=O)N2C1 [PP0708] | B (a compound having 3 or more and less than 10 is denoted as B) | B (a compound having 3 or more and less than 10 is denoted as B)
8 | 30 | CCC[C@H]1C(=O)N[C@@H]([C@@H](C)CC)C(=O)N(C)CC(=O)N(C)[C@H]2CCCCN(C2=O)[C@@H](Cc2ccc(C(F)(F)F)cc2)C(=O)N(C)CC(=O)N[C@@H](CCc2cc(F)c(C(F)(F)F)c(F)c2)C(=O)N2C[C@H](OCC)C[C@H]2C(=O)NC2(CCC2)C(=O)N(C)[C@@H](C2CCCC2)C(=O)N(C)[C@H](C(=O)N2CCOCC2)CC(=O)N1C [PP0709] | B (a compound having 3 or more and less than 10 is denoted as B) | C (A compound having a KD ratio of 0.1 or more and less than 3 is denoted as C)
9 | 29 | C=CC[C@H]1C(=O)N[C@@H]([C@@H](C)CC)C(=O)N(C)CC(=O)N(C)[C@H]2CCCCN(C2=O)[C@@H](Cc2ccc(C(F)(F)F)cc2)C(=O)N(C)CC(=O)N[C@@H](CCc2cc(F)c(C(F)(F)F)c(F)c2)C(=O)N2C[C@H](OCC)C[C@H]2C(=O)NC2(CCC2)C(=O)N(C)[C@@H](C2CCCC2)C(=O)N(C)[C@H](C(=O)N2CCOCC2)CC(=O)N1C [PP0710] | B (a compound having 3 or more and less than 10 is denoted as B) | C (A compound having a KD ratio of 0.1 or more and less than 3 is denoted as C)
10 | 25 | C#CC[C@H]1C(=O)N[C@@H]([C@@H](C)CC)C(=O)N(C)CC(=O)N(C)[C@H]2CCCCN(C2=O)[C@@H](Cc2ccc(C(F)(F)F)cc2)C(=O)N(C)CC(=O)N[C@@H](CCc2cc(F)c(C(F)(F)F)c(F)c2)C(=O)N2C[C@H](OCC)C[C@H]2C(=O)NC2(CCC2)C(=O)N(C)[C@@H](C2CCCC2)C(=O)N(C)[C@H](C(=O)N2CCOCC2)CC(=O)N1C [PP0711] | B (a compound having 3 or more and less than 10 is denoted as B) | C (A compound having a KD ratio of 0.1 or more and less than 3 is denoted as C)
11 | 42 | CCO[C@@H]1C[C@H]2C(=O)NC3(CCC3)C(=O)N(C)[C@@H](C3CCCC3)C(=O)N(C)[C@H](C(=O)N3CCOCC3)CC(=O)N(C)[C@@H](CC3CC3)C(=O)N[C@@H]([C@@H](C)CC)C(=O)N(C)CC(=O)N(C)[C@H]3CCCCN(C3=O)[C@@H](Cc3ccc(C(F)(F)F)cc3)C(=O)N(C)CC(=O)N[C@@H](CCc3cc(F)c(C(F)(F)F)c(F)c3)C(=O)N2C1 [PP0712] | C (A compound having a KD ratio of 0.1 or more and less than 3 is denoted as C) | C (A compound having a KD ratio of 0.1 or more and less than 3 is denoted as C)
12 | 33 | CCO[C@@H]1C[C@H]2C(=O)NC3(CCC3)C(=O)N(C)[C@@H](C3CCCC3)C(=O)N(C)[C@H](C(=O)N3CCOCC3)CC(=O)N(C)[C@@H](CC3CCC3)C(=O)N[C@@H]([C@@H](C)CC)C(=O)N(C)CC(=O)N(C)[C@H]3CCCCN(C3=O)[C@@H](Cc3ccc(C(F)(F)F)cc3)C(=O)N(C)CC(=O)N[C@@H](CCc3cc(F)c(C(F)(F)F)c(F)c3)C(=O)N2C1 [PP0713] | B (a compound having 3 or more and less than 10 is denoted as B) | C (A compound having a KD ratio of 0.1 or more and less than 3 is denoted as C)
13 | 47 | CCO[C@@H]1C[C@H]2C(=O)NC3(CCC3)C(=O)N(C)[C@@H](C3CCCC3)C(=O)N(C)[C@H](C(=O)N3CCOCC3)CC(=O)N(C)[C@@H](CC(C)(C)C)C(=O)N[C@@H]([C@@H](C)CC)C(=O)N(C)CC(=O)N(C)[C@H]3CCCCN(C3=O)[C@@H](Cc3ccc(C(F)(F)F)cc3)C(=O)N(C)CC(=O)N[C@@H](CCc3cc(F)c(C(F)(F)F)c(F)c3)C(=O)N2C1 [PP0714] | B (a compound having 3 or more and less than 10 is denoted as B) | C (A compound having a KD ratio of 0.1 or more and less than 3 is denoted as C)
14 | 35 | CCO[C@@H]1C[C@H]2C(=O)NC3(CCC3)C(=O)N(C)[C@@H](C3CCCC3)C(=O)N(C)[C@H](C(=O)N3CCOCC3)CC(=O)N(C)[C@@H](CC3CCCC3)C(=O)N[C@@H]([C@@H](C)CC)C(=O)N(C)CC(=O)N(C)[C@H]3CCCCN(C3=O)[C@@H](Cc3ccc(C(F)(F)F)cc3)C(=O)N(C)CC(=O)N[C@@H](CCc3cc(F)c(C(F)(F)F)c(F)c3)C(=O)N2C1 [PP0715] | B (a compound having 3 or more and less than 10 is denoted as B) | C (A compound having a KD ratio of 0.1 or more and less than 3 is denoted as C)
15 | 55 | CCO[C@@H]1C[C@H]2C(=O)NC3(CCC3)C(=O)N(C)[C@@H](C3CCCC3)C(=O)N(C)[C@H](C(=O)N3CCOCC3)CC(=O)N(C)[C@@H](CC3CCCCC3)C(=O)N[C@@H]([C@@H](C)CC)C(=O)N(C)CC(=O)N(C)[C@H]3CCCCN(C3=O)[C@@H](Cc3ccc(C(F)(F)F)cc3)C(=O)N(C)CC(=O)N[C@@H](CCc3cc(F)c(C(F)(F)F)c(F)c3)C(=O)N2C1 [PP0716] | B (a compound having 3 or more and less than 10 is denoted as B) | C (A compound having a KD ratio of 0.1 or more and less than 3 is denoted as C)
